Assay results reported in US6541463B1, “Inhibitors of type 5 and type 3 17β-hydroxysteroid dehydrogenase and methods for their use” (Endorecherche, Inc., priority 1998, dated 2003).

Molecular target: T1, estrogen receptor (Rattus norvegicus, UniProt P06211)
T1 construct: from tissue; host or cells: uterine cytosol of gonadectomized female Sprague-Dawley rats
T1 sequence (P06211 1-600): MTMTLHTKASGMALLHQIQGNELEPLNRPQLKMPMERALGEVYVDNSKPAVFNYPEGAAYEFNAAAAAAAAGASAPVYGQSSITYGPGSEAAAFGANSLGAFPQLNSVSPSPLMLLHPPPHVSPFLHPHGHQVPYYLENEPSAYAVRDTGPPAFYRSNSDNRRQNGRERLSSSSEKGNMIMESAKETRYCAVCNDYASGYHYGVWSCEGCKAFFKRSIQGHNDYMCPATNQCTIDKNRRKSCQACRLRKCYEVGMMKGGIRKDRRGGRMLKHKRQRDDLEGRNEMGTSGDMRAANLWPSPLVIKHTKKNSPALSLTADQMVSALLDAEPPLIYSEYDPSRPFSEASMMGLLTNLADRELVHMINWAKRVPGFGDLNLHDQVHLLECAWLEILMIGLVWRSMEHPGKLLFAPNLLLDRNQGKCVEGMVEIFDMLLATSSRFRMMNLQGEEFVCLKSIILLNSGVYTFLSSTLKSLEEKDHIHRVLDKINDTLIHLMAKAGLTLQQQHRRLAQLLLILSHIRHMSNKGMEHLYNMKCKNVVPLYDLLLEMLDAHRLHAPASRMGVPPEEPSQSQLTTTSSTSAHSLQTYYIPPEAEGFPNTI
Experiment: Estrogen receptor (ER) assay: inhibition of [3H]E2 binding, uterine cytosol
Method: Female Sprague-Dawley rats (Crl: CD(SD)Br) weighing 200-300 g were obtained from Charles-River Inc. (St-Constant, Québec, Canada). The rats were gonadectomized under general anesthesia (Isoflurane) and killed by cervical dislocation 24 hours later. The uteri were rapidly removed, dissected free from adhering tissue and frozen on dry-ice. Uteri were kept at −80° C. until assay. All subsequent steps were performed at 0-4° C. Uteri were homogenized in 10 vol (wt/vol) of buffer A (25 mM Tris-HCI, 1.5 mM EDTA disodium salt, 10 mM α-monothioglycerol, 10% glycerol, and 10 mM sodium molybdate, pH 7.4), using a Polytron PT-10 homogenizer (Brinkman Instruments, Canada) at a setting of 5 for three periods of 10 sec, with intervals of 10 sec for cooling. The homogenate was then centrifuged at 105,000×g for 60 min in a Beckman L5-65 ultracentrifuge (Fullerton, Calif.). The protein concentration of the cytosol fraction was measured according to the method of Bradford (Anal. Biochem. 72: 248-254, 1976), using bovine serum albumin as standard.
Estrogen binding was measured using the dextran-coated charcoal adsorption technique as described previously (Asselin et al., Endocrinology, 101: 666-671, 1977; Asselin and Labrie, J. Steroid Biochem., 9: 1079-1082, 1978). Briefly, [^3H]E2 solubilized in ethanol were diluted into buffer A. Aliquots of uterine cytosol preparation (0.1 ml) were incubated with 5 nM [^3H]E2 (˜200,000 cpm, 0.1 ml) in the presence or absence of the indicated concentrations of unlabeled compounds (0.1 ml, prepared in buffer A containing 10% ethanol) for 3 h at room temperature. Unbound steroids were then separated by incubation for 15 min at 0-4° C. with 0.3 ml 0.5% Norit-A and 0.05% Dextran T-70 in buffer B (1.5 mM EDTA disodium salt, 10 mM monothioglycerol, and 10 mM Tris-HCI, pH 7.4) and centrifuged at 3,000×g for 15 min. Aliquots of the supernatant (0.3 ml) were removed for radioactivity measurement.

Structure (SMILES) | % Inhibition Estrogen Receptor E^−6 (Table 4′, E^−6) [%] | % Inhibition Estrogen Receptor E^−8 (Table 4′, E^−8) [%] | other results
CC(=O)O[C@]1(C(=O)N(C)C)CCC2C3C=C(C)C4=CC(=O)CC[C@]4(C)C3CC[C@@]21C (stereo partly shown) [EM-1159] |  |  | % Inhibition Estrogen Receptor (E^−6): 1%; % Inhibition Estrogen Receptor (E^−8): 0%
CC1(C)CCC2(CCC3C4CCc5ccccc5C4CCC32C)OC1=O (stereo not shown) [CS-224] | 2 | 0 | 
CC12C=CC(=O)C=C1C=CC1C2CCC2(C)C(=O)C3(CCCCC3)CC12 (stereo not shown) [CS-204] |  |  | % Inhibition Estrogen Receptor E^−6 (E^−6): 0%; % Inhibition Estrogen Receptor E^−8 (E^−8): 0%
COC(=O)CCCC(=O)O[C@]1(C(C)=O)CC[C@H]2[C@@H]3C=C(C)C4=CC(=O)CC[C@]4(C)[C@H]3CC[C@@]21C [EM-1007, 6-Methyl-4,6-pregnadien-17α-ol-3,20-dione 4′-Carbomethoxybutyrate] |  |  | % Inhibition Estrogen Receptor (E^−6): 0%; % Inhibition Estrogen Receptor (E^−8): 0%
COc1ccc2c(c1)C(=O)CC1C3CCC4(CCC(C)(C)C(=O)O4)C3(C)CCC21O (stereo not shown) [EM-1386] | 0 | 3 | 
COCCOc1cc2c(cc1C(=O)O)C1CCC3(C)C(CCC34CCC(C)(C)C(=O)O4)C1CC2 [EM-1405, 2-Carboxy-3-(2″-methoxyethyloxy)-1,3,5(10)-estratrien-17(R)-spiro-2′-(5′,5′-dimethyl-6′-oxo)tetrahydropyran] | 0 | 0 | 
C[C@]12CCC3c4cc([N+](=O)[O-])c(O)cc4CCC3C1CC[C@@]21CCCC(=O)O1 (stereo partly drawn) [EM-1124, 2-Nitro-1,3,5(10)-estraetriene-3-ol-17(R)-spiro-2′-(6′-oxo)tetrahydropyran] | 0 | 0 | 
CC(=O)O[C@]1(C)C(=O)CCC2C3C=C(C)C4=CC(=O)C=C[C@]4(C)C3CC[C@@]21C (stereo partly shown) [CS-237] |  |  | % Inhibition Estrogen Receptor E^−6 (E^−6): 0%; % Inhibition Estrogen Receptor E^−8 (E^−8): 0%
CC1(C)CC[C@@]2(CCC3C4CCc5cc6oncc6cc5C4CC[C@@]32C)OC1=O (stereo partly drawn) [EM-1407-CS, 1,3,5(10)-estratrien-(2,3-oximino)-17(R)-spiro-2′-(5′,5′-dimethyl-6′-oxo)tetrahydropyran] | 0 | 2 | 
CC1(C)CCC2(CCC3C4CCc5c(cc(Cl)c(O)c5Cl)C4CCC32C)OC1=O (stereo not shown) [EM-1391-CS] | 0 | 0 | 
COc1cc2c(cc1C)C1CCC3(C)C(CCC34CCC(C)(C)C(=O)O4)C1CC2 (stereo not shown) [EM-1412-CS] | 0 | 0 | 
CCC[C@@H]1CC2C3C=CC4=CC(=O)CC[C@]4(C)C3CC[C@]2(C)C1=O (stereo partly shown) [EM-1097] |  |  | % Inhibition Estrogen Receptor E^−6 (E^−6): 1%; % Inhibition Estrogen Receptor E^−8 (E^−8): 0%
COCCOc1cc2c(cc1C(N)=O)C1CC[C@@]3(C)C(CC[C@@]34CCC(C)(C)C(=O)O4)C1CC2 (stereo partly drawn) [EM-1424, 2-Carbamoyl-3-(2″-methoxyethyloxy)-1,3,5(10)-estratrien 17(R)-spiro-2′-(5′,5′-dimethyl-6′-oxo)tetrahydropyran] | 3 | 3 | 
CN1C(=O)C=C[C@]2(C)C3CC[C@@]4(C)C(CC[C@@]45CCCC(=O)O5)C3CCC12 (stereo partly shown) [EM-1122-CS] |  |  | % Inhibition Estrogen Receptor E^−6 (Table 5 column 16, E^−6): 0%; % Inhibition Estrogen Receptor E^−8 (Table 5 column 16, E^−8): 2%
C[C@]12CCC3c4ccc(O)cc4CCC3C1CC[C@@]21CCCC(=O)O1 (stereo partly drawn) [EM-919, 1,3,5(10)-estratrien-3-ol-17(R)-spiro-2′(6′-oxo)tetrahydropyran] |  |  | % Inhibition Estrogen Receptor *E^−5 (Table 4′, starred values, E^−5): 90* %; % Inhibition Estrogen Receptor *E^−7 (Table 4′, starred values, E^−7): 07* %
CCC(=O)O[C@]1(C(C)=O)CCC2C3C=C(C)C4=CC(=O)C[C@H](C)[C@]4(C)C3CC[C@@]21C (stereo partly shown) [CS-243] |  |  | % Inhibition Estrogen Receptor (E^−6): 0%; % Inhibition Estrogen Receptor (E^−8): 1%
CC1CCC2(CCC3C4CCc5cc(O)c([N+](=O)[O-])cc5C4CCC32C)OC1=O [EM-1126, 2-Nitro-1,3,5(10)-estratrien-3-ol-17(R)-spiro-2′-(5′-methyl-6′-oxo)tetrahydropyran] | 0 | 1 | 
